Measurements from ChEMBL document CHEMBL2069212, “Identification and in vivo and in vitro characterization of long acting and melanocortin 4 receptor (MC4-R) selective α-melanocyte-stimulating hormone (α-MSH) analogues” (J Med Chem, 2012).
Active and inactive are the calls of the source. No cut-off for these calls is given here.

How the values were obtained:
Melanocortin receptor 3 = Melanocortin receptor 3 (Homo sapiens, UniProt P41968); assay: Displacement of [125I]-NAD-alpha-MSH from human recombinant MC3 receptor expressed in BHK570 cells after 1 hr in presence of ovalbumin; format: cell-based
Sequence of Melanocortin receptor 3 (P41968 whole entry): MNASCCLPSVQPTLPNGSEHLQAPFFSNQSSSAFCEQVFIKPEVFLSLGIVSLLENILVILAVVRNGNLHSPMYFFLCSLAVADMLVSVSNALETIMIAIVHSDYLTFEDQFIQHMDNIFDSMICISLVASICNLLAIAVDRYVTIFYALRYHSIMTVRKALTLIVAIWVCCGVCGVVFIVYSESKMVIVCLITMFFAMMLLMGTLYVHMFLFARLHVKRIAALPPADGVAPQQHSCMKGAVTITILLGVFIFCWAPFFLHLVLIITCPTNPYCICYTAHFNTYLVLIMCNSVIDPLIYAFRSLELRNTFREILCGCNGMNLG

Melanocortin receptor 5 = Melanocortin receptor 5 (Homo sapiens, UniProt P33032); assay: Displacement of [125I]-NAD-alpha-MSH from human recombinant MC3 receptor human MC5 expressed in BHK570 cells after 1 hr in presence of ovalbumin; format: cell-based
Sequence of Melanocortin receptor 5 (P33032 whole entry): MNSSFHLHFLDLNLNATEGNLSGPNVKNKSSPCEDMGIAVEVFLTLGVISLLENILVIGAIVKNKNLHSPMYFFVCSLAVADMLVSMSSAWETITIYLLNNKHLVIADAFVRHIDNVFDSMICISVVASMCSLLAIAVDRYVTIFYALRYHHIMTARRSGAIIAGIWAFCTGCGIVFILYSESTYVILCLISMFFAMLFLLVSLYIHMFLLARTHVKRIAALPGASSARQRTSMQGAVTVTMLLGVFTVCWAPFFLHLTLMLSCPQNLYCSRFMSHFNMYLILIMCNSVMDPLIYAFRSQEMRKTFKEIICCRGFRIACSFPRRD

Melanocortin receptor 4 [1] = target: T1, Melanocortin receptor 4 (Homo sapiens, UniProt P32245); assay: Agonist activity at human recombinant MC4 receptor expressed in BHK570 cells assessed as induction of […] accumulation in presence of 0.1% human serum albumin; format: functional, cell-based
T1 sequence (P32245 whole entry): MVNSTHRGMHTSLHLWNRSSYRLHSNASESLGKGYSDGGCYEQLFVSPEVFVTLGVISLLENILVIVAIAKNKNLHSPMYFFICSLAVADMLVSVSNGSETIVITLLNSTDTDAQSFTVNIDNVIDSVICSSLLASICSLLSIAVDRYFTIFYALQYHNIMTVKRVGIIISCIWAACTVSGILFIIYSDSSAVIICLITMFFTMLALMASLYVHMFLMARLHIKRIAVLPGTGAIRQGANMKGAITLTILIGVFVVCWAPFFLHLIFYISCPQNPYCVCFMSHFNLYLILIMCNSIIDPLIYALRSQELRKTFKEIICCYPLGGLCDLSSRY

[2] = Solubility of the compound at pH 3 to 8; format: physicochemical; settings: buffer
Rattus norvegicus [3] = assay: Antiobesity activity in Sprague-Dawley rat assessed as reduction of food intake at 3 mg/kg, sc qd measured up to 7 hrs relative to control; format: functional; design: scale not given: the % may be the effect or the level left; settings: route subcutaneous
Rattus norvegicus [4] = assay: Antiobesity activity in Sprague-Dawley rat assessed as reduction of food intake at 3 mg/kg, sc qd measured after 7 to 24 hrs relative to control; format: functional; design: scale not given: the % may be the effect or the level left; settings: route subcutaneous
Rattus norvegicus [5] = assay: Antiobesity activity in Sprague-Dawley rat assessed as reduction of food intake at 3 mg/kg, sc qd measured after 24 to 48 hrs relative to control; format: functional; settings: route subcutaneous
Melanocortin receptor 4 [6] = target: T1, Melanocortin receptor 4; assay: Agonist activity at human recombinant MC4 receptor expressed in BHK570 cells assessed as induction of […] accumulation relative to alpha-MSH in presence of 0.1% human serum albumin; format: functional, cell-based
[7] = target: Melanocortin receptor 4 (Rattus norvegicus) (UniProt P70596); assay: Agonist activity at rat MC4 receptor; format: functional
Sequence of Melanocortin receptor 4 (Rattus norvegicus) (P70596 whole entry): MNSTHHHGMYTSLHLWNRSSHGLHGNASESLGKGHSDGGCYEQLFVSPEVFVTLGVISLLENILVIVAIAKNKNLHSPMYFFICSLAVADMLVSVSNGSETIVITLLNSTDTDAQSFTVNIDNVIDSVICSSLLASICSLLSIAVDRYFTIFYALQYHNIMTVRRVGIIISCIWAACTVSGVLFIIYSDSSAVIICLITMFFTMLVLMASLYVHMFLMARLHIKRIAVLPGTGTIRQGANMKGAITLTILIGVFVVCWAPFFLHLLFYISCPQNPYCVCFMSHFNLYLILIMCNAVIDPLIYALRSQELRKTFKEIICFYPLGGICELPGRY

[8] = target: Melanocyte-stimulating hormone receptor (Homo sapiens, UniProt Q01726); assay: Displacement of [125I]-NAD-alpha-MSH from human recombinant MC1 receptor expressed in BHK570 cells after 90 mins in presence of ovalbumin; format: cell-based
Sequence of Melanocyte-stimulating hormone receptor (Q01726 whole entry): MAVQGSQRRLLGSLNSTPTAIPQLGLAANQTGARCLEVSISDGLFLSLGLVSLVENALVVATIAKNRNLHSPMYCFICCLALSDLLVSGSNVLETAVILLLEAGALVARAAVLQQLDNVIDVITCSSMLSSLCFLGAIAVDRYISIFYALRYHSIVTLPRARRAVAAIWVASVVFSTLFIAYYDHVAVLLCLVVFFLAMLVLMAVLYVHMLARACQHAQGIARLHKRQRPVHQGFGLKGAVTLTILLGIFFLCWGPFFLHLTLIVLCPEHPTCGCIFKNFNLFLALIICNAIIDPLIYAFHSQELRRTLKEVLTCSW

[9] = Half life in human; format: ADME, organism-based; settings: in vivo
Melanocortin receptor 4 [10] = target: T1, Melanocortin receptor 4; assay: Displacement of [125I]-NAD-alpha-MSH from MC4 receptor after 2 hrs by gamma counting in presence of ovalbumin
[11] = Dissociation constant, pKa of the compound; format: physicochemical

| SMILES | Ki (Melanocortin receptor 3) | Ki (Melanocortin receptor 5) | EC50 (Melanocortin receptor 4 [1]) | solubility [2] | Activity (Rattus norvegicus [3]) | Activity (Rattus norvegicus [4]) | Food intake relative to control (Rattus norvegicus [5]) | Emax (Melanocortin receptor 4 [6]) | Activity [7] | Ki [8] | half-life [9] | Ki (Melanocortin receptor 4 [10]) | pKa [11] |
| --- | --- | --- | --- | --- | --- | --- | --- | --- | --- | --- | --- | --- | --- |
| CCCC[C@H](NC(=O)[C@H](CNC(=O)CN(CC(=O)O)CC(=O)O)NC(=O)[C@H](Cc1cnc[nH]1)NC(=O)[C@H](CCC(N)=O)NC(=O)[C@H](CO)NC(=O)CNC(=O)COCCOCCNC(=O)CCCCCCCCCCCCCCCc1nnn[nH]1)C(=O)N[C@H]1CCC(=O)NCCCC[C@@H](C(N)=O)NC(=O)[C@H](Cc2c[nH]c3ccccc23)NC(=O)[C@H](CCCN=C(N)N)NC(=O)[C@@H](Cc2ccccc2)NC(=O)[C@@H]2C[C@@H](O)CN2C1=O | 71 nM | 13 nM | 88 nM | soluble | – | – | – | – | – | – | – | – | – |
| CCCC[C@H](NC(=O)[C@H](CCC(=O)O)NC(=O)[C@H](CCCNC(=N)N)NC(=O)[C@H](CCC(=O)O)NC(=O)[C@H](CCC(=O)O)NC(=O)CNC(=O)COCCOCCNC(=O)CCCCCCCCCCCCCCCc1nnn[nH]1)C(=O)N[C@H]1CCC(=O)NCCCC[C@@H](C(N)=O)NC(=O)[C@H](Cc2c[nH]c3ccccc23)NC(=O)[C@H](CCCNC(=N)N)NC(=O)[C@@H](Cc2ccccc2)NC(=O)[C@@H]2C[C@@H](O)CN2C1=O | – | – | – | – | 74% | 90% | 98% | 77% | – | – | – | – | – |
| CCCC[C@H](NC(=O)[C@H](CNC(=O)CN(CC(=O)O)CC(=O)O)NC(=O)[C@H](Cc1cnc[nH]1)NC(=O)[C@H](CCC(N)=O)NC(=O)[C@H](CO)NC(=O)CNC(=O)COCCOCCNC(=O)CCCCCCCCCCCCCCCc1nnn[nH]1)C(=O)N[C@H]1CCC(=O)NCCCC[C@@H](C(N)=O)NC(=O)[C@H](Cc2c[nH]c3ccccc23)NC(=O)[C@H](CCCNC(=N)N)NC(=O)[C@@H](Cc2ccccc2)NC(=O)[C@@H]2C[C@@H](O)CN2C1=O | – | – | – | – | 53% | 39% | 66% | 85% | Active | – | – | – | – |
| CCCC[C@H](NC(C)=O)C(=O)N[C@H]1CC(=O)NCCCC[C@@H](C(=O)O)NC(=O)[C@H](Cc2c[nH]c3ccccc23)NC(=O)[C@H](CCCNC(=N)N)NC(=O)[C@@H](Cc2ccccc2)NC(=O)[C@H](Cc2c[nH]cn2)NC1=O [BREMELANOTIDE] | – | – | – | – | 23% | 91% | 100% | – | – | 6.4 nM | 2 h | – | – |
| CCCCCCCCCCCCCCCC(=O)NS(=O)(=O)CCCC(=O)NCC(=O)N[C@@H](CO)C(=O)N[C@@H](CCC(N)=O)C(=O)N[C@@H](Cc1cnc[nH]1)C(=O)N[C@@H](CO)C(=O)N[C@@H](CCCC)C(=O)N[C@H]1CCC(=O)NCCCC[C@@H](C(N)=O)NC(=O)[C@H](Cc2c[nH]c3ccccc23)NC(=O)[C@H](CCCNC(=N)N)NC(=O)[C@@H](Cc2ccccc2)NC(=O)[C@@H]2C[C@@H](O)CN2C1=O | 8.2 nM | 1.2 nM | 0.15 nM | – | 40% | 36% | 58% | – | – | 230 nM | – | 0.11 nM | 2 |
| CCCC[C@H](NC(=O)[C@H](CN)NC(=O)[C@H](Cc1cnc[nH]1)NC(=O)[C@H](CCC(N)=O)NC(=O)[C@H](CO)NC(=O)CNC(=O)COCCOCCNC(=O)CCCCCCCCCCCCCCCc1nnn[nH]1)C(=O)N[C@H]1CCC(=O)NCCCC[C@@H](C(N)=O)NC(=O)[C@H](Cc2c[nH]c3ccccc23)NC(=O)[C@H](CCCNC(=N)N)NC(=O)[C@@H](Cc2ccccc2)NC(=O)[C@@H]2C[C@@H](O)CN2C1=O | – | – | – | – | 49% | 45% | 73% | – | Active | – | – | – | – |
